Experimental data published in US9271994B2, “Compositions and methods related to calcitriol” (VDF Futureceuticals, Inc., priority 2009, dated 2016).

Experiments:
Type in all cases: in vivo
[1] = tested on: calcidiol; assay: Serum calcidiol after single oral dose in human volunteers; conditions: single oral dosage of 552 mg, five subjects, 30-120 minutes after administration
Protocol: (§1) In a typical example, five subjects were administered a single dosage of 552 mg calcium fructoborate upon informed consent, and blood was drawn immediately prior to administration and after 30, 60, 90, and 120 minutes. Calcitriol was measured using a standard radioimmuno assay from a commercial lab starting from 4 ml whole blood (numerous alternative methods are also deemed suitable, including those described in U.S. Pat. Nos. 4,585,741, 5,202,266, and 6,455,714). From each sample and for each time point, concentrations of calcidiol and calcitriol in serum were measured and the data are shown in FIGS. 1A to 1D. FIG. 1A depicts the effect of oral administration of calcium fructoborate on blood calcitriol 30 minutes after oral administration, FIG. 1B depicts the effect of oral administration of calcium fructoborate on blood calcitriol 60 minutes after oral administration, and FIG. 1C depicts the effect of oral administration of calcium fructoborate on blood calcitriol 90 minutes after oral administration. FIG. 1D depicts the effect of oral administration of calcium fructoborate on blood calcitriol 90-120 minutes after oral administration.

[2] = tested on: serum calcium, serum phosphate, parathyroid hormone, calcitonin; assay: Serum calcium, phosphate, parathyroid hormone and calcitonin upon administration; conditions: about 550 mg; data not shown
[3] = Intact Ca-Fructoborate in serum of orally treated fasted mice by LC-MS; conditions: oral gavage 600 mcg/mouse; for Intact Ca-fructoborate in serum: fasted mice
Protocol: Using LC-MS, Ca-Fructoborate was detected and measured from serum samples at concentrations as low as 0.2 ppm and higher. This method was used to analyze the presence and amount of Ca-Fructoborate in serum collected from mice treated orally (gavage) with Ca-Fructoborate in liquid at dose 600 mcg/mouse for 30 and 60 minutes.
Detection of intact Ca-Fructoborate in sera collected from fasted mice treated orally with the compound for 30 or 60 minutes. Collected sera were diluted in running buffer and filtered through 0.45 PVDF filter. This solution was analyzed by LCMS for Ca-Fructoborate as the fructoborate anion.

[4] = tested on: blood calcitriol; assay: Blood/serum calcitriol after single oral dose in human volunteers (radioimmuno assay)
Protocol: as §1
FIGS. 2A and 2B depict a graphic illustration of the results from this study where the biphasic mode of modulation of calcitriol is clearly seen between times 0-90 minutes (decrease) and 90-120 minutes (increase). In most cases, it is expected that the so increased calcitriol level will drop back to starting levels within 6 hours or less, and more typically within 4 hours, or less (data not shown). FIG. 3 depicts another graphic representation in which the exclusive modulation of calcitriol versus calcidiol is shown.
While not wishing to be bound by any theory or hypothesis, the inventors contemplate that the compounds according to the inventive subject matter increase serum concentration of calcitriol in a bi-modal manner. During the first 60 minutes, a moderate increase is observed in the case of subjects with low initial level of calcitriol (<30 pg/ml), but not in subjects with initial level >30 pg/ml. […]

Intact Ca-fructoborate in serum ([3]; 30 minutes): 449 µg/mL | Intact Ca-fructoborate in serum ([3]; 60 minutes): 556 µg/mL | bioavailability of the compound ([3]; mice (20 g by average)): 556 mcg/ml of serum
Substance: calcium fructoborate
calcidiol concentration [1]: remained unaffected | change of serum calcium concentration [2]: 5-15% | change of serum concentration of calcitonin [2]: 10-30% | change of serum concentration of parathyroid hormone [2]: 10-30% | change of serum phosphate concentration [2]: 5-15% | delivery from intestine to bloodstream ([3]; mice, 30 and 60 minutes): in intact form and in time-dependent manner | modulation of calcitriol between times 0-90 minutes ([4]; single oral 552 mg, 0-90 minutes): decrease | modulation of calcitriol between times 90-120 minutes ([4]; single oral 552 mg, 90-120 minutes): increase | calcitriol serum concentration ([4]; single oral dosage of 552 mg, five subjects, 30-120 minutes after administration): significantly and acutely affected
